The values below come from ChEMBL document CHEMBL1126381, “2-carboxy indolines and indoles as potential glycine/NMDA antagonists: effect of five-membered ring conformation on affinity” (Bioorg Med Chem Lett, 1992).

Experiment [1] deals with Glutamate receptor ionotropic, NMDA 1 (Rattus norvegicus, UniProt P35439). Kind of experiment: Inhibition of [3H]L-689,560 binding to Glycine site of NMDA receptor of rat cortical membranes. Type of experiment: cell membranes, Membrane.
Experiment [2] relates to Mus musculus. The experiment in a line: In vivo activity in DBA/2 Mouse audiogenic seizure model was determined by testing number of animals protected after a dose of 100 mg/Kg i.p.; Number of animals tested 8 mice. The format is functional.
Experiment [3] deals with Mus musculus. Kind of experiment: In vivo activity in DBA/2 Mouse audiogenic seizure model was determined by testing number of animals protected after a dose of 50 mg/Kg i.p.; Number of animals tested 8 mice. The format is functional.

One may read the IC50 as the concentration at which inhibition is half-maximal. As to `NC(=O)[C@@H]1c2ccc(Cl)cc2N[C@H]1C(=O)O`, the IC50 in experiment [1] was above 100 µM.
The same measure, in the same setting: the value for `O=C(O)C[C@@H]1c2ccc(Cl)cc2N[C@H]1C(=O)O` was above 100 µM.
On to `O=C(O)CCc1c(C(=O)O)[nH]c2cc(Cl)cc(Cl)c12`, for which the values for the Animals protected with Mus musculus [2] and with Mus musculus [3] were 6 and 0, respectively. The IC50 in experiment [1] was 0.07 µM.
`COC(=O)[C@@H]1c2ccc(Cl)cc2N[C@H]1C(=O)O`: in experiment [1], the IC50 was above 300 µM.
Same read-out and setting: under `O=C(O)[C@@H]1Nc2cc(Cl)ccc2[C@H]1CO` stands above 100 µM; under `NC(=O)c1c(C(=O)O)[nH]c2cc(Cl)ccc12`, 0.81 µM.
The same measure, in the same setting: under `O=C(OC[C@@H]1c2ccc(Cl)cc2N[C@H]1C(=O)O)c1ccccc1` stands above 100 µM.
Still for that read-out and setting: under `O=C(O)[C@@H]1c2ccc(Cl)cc2N[C@H]1C(=O)O` stands above 100 µM.
In the experiment on Mus musculus [2], `Nc1ccc(CNC(=O)CCc2c(C(=O)O)[nH]c3cc(Cl)cc(Cl)c23)cc1` yielded an Animals protected of 1. Further, the IC50 in experiment [1] is 0.027 µM.
`O=C(O)c1[nH]c2cc(Cl)ccc2c1CO` came in with an IC50 in experiment [1] of 9 µM.
Still for that read-out and setting: under `O=C(CCc1c(C(=O)O)[nH]c2cc(Cl)cc(Cl)c12)Nc1ccccc1` stands 0.036 µM.
Still for that read-out and setting: under `COC(=O)C1(C(=O)OC)c2ccc(Cl)cc2N[C@H]1C(=O)O` stands above 100 µM.
